US20230148599A1, “FUNGICIDAL MIXTURES CONTAINING PYRAZOLE DERIVATIVES” (FMC Corporation, priority 2020, published 2023)

Experiments:
Format in all cases: in vivo
Conditions in all cases: 50 ppm, 100 = 100% disease control, 0 = no control
[1] = test system: Septoria tritici; assay: Test A: wheat leaf blotch, preventive spray on wheat seedlings
Outline: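 Wheat seedlings sprayed to run-off with compound suspended in acetone/water with 250 ppm PEG400 surfactant, inoculated next day with Septoria tritici spores. Held 48 h saturated at 24 °C, then 17 days at 20 °C; disease rated 0–100% control relative to controls.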

[2] = test system: Blumeria graminis f. sp. tritici; assay: Test C: wheat powdery mildew, preventive spray on wheat seedlings
Outline: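 Seedlings were sprayed to run-off with compound suspended (ppm) in 50/50 acetone–water containing 250 ppm PEG400, then spore-dust inoculated the following day. After 8 days at 20° C, disease control was rated visually from 0 to 100 against controls.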

[3] = test system: Botrytis cinerea; assay: Test E: tomato Botrytis, preventive spray on tomato seedlings
Outline: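 Compound suspended in 50/50 acetone/water with 250 ppm PEG400 surfactant and sprayed to run-off on tomato seedlings; Botrytis cinerea spores applied the next day. Incubation 48 h at 20° C in saturated atmosphere, then 3 days at 24° C. Visual rating 0–100% disease control relative to controls.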

[4] = test system: Puccinia recondita f. sp. tritici; assay: Test B: wheat leaf rust, preventive spray on wheat seedlings
Outline: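 Wheat seedlings were sprayed to run-off with compound suspended at ppm concentrations in acetone/water containing 250 ppm PEG400. The next day they were inoculated with Puccinia recondita f. sp. tritici spores, held saturated at 20 °C for 24 h, then kept 7 days at 20 °C. Disease control was rated 0–100% relative to untreated controls.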

[5] = test system: Phakopsora pachyrhizi; assay: Test D: Asian soybean rust, preventive spray on soybean seedlings
Outline: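 Compounds in acetone/water (50/50) with 250 ppm PEG400, dosed in ppm, sprayed to run-off on soybean seedlings; inoculated with P. pachyrhizi spores next day. Held 24 h at 22 °C in saturated air, then 8 days at 22 °C; visual rating of disease control, 0–100, relative to untreated controls.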

[6] = test system: Alternaria solani; assay: Test F: tomato early blight, preventive spray on tomato seedlings
Outline: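 Tomato seedlings were sprayed to run-off with compound suspended in acetone/water (50/50) with 250 ppm PEG400 and inoculated with Alternaria solani spores the next day. Plants were held 48 h at 27 °C in saturated humidity, then 3 days at 20 °C. Disease control was rated visually from 0 to 100 against untreated controls.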

SMILES | Test A disease control rating [1] [%] | Test C disease control rating [2] [%] | Test E disease control rating [3] [%] | Test B disease control rating [4] [%] | Test D disease control rating [5] [%] | Test F disease control rating [6] [%]
Cc1cc(Cl)c(Nc2c(-c3ccc(C#N)cc3Cl)c(C)nn2C)c([N+](=O)[O-])c1 [compound 156] | 91 | 66 | 0 | 91 | 0 | 0
Cc1cccc([N+](=O)[O-])c1Nc1c(-c2ccc(C#N)cc2Cl)c(C)nn1C [compound 157] | 100 | 76 | 9 | 97 | 0 | 0
Cc1nn(C)c(Nc2c(Cl)cccc2[N+](=O)[O-])c1-c1c(F)cc(F)cc1F [compound 158] | 99 | 99 | 99 | 100 | 87 | 83
COc1ccc(Nc2c(-c3c(F)cc(F)cc3F)c(C)nn2C)c([N+](=O)[O-])c1 [compound 159] | 100 | 100 | 99 | 100 | 13 | 99
COc1cc(F)c(-c2c(C)nn(C)c2Nc2c(Cl)cccc2[N+](=O)[O-])c(F)c1 [compound 160] | 98 | 96 | 100 | 100 | 86 | 99
COc1cc(F)c(-c2c(C)nn(C)c2Nc2ccc(OC)cc2[N+](=O)[O-])c(F)c1 [compound 161] | 100 | 100 | 100 | 100 | 0 | 99
COc1cc(F)c(-c2c(C)nn(C)c2Nc2c(C)cccc2[N+](=O)[O-])c(F)c1 [compound 162] | 100 | 99 | 97 | 100 | 77 | 98
Cc1nn(C)c(Nc2c(Cl)cccc2[N+](=O)[O-])c1-c1c(F)cc(F)cc1Br [compound 163] | 99 | 98 | 88 | 100 | 78 | 76
COc1ccc(Nc2c(-c3c(F)cc(F)cc3Br)c(C)nn2C)c([N+](=O)[O-])c1 [compound 164] | 100 | 98 | 100 | 100 | 0 | 99
COc1cc(F)c(Nc2c(-c3ccc(F)cc3Br)c(C)nn2C)c([N+](=O)[O-])c1 [compound 165] | 99 | 98 | 100 | 100 | 94 | 100
COc1cc(F)c(Nc2c(-c3ccc(C#N)cc3Cl)c(C)nn2C)c([N+](=O)[O-])c1 [compound 166] | 99 | 98 | 99 | 100 | 98 | 100
Cc1cccc([N+](=O)[O-])c1Nc1c(-c2c(F)cc(F)cc2F)c(C)nn1C [compound 167] | 100 | 98 | 95 | 100 | 65 | 98
Cc1nn(C)c(Nc2ccccc2[N+](=O)[O-])c1-c1c(F)cc(Cl)cc1F [compound 168] | 100 | 97 | 99 | 74 | 0 | 40
Cc1cccc([N+](=O)[O-])c1Nc1c(-c2c(F)cc(F)cc2Br)c(C)nn1C [compound 169] | 100 | 100 | 98 | 100 | 0 | 0
CCc1nn(C)c(Nc2c(F)cccc2[N+](=O)[O-])c1-c1c(F)cc(Cl)cc1F [compound 170] | 100 | 99 | 100 | 99 | 0 | 99
CCc1nn(C)c(Nc2c(F)cc(Br)cc2[N+](=O)[O-])c1-c1ccc(F)cc1F [compound 171] | 100 | 99 | 97 | 91 | 0 | 88
CCc1nn(C)c(Nc2ccc(OC)cc2[N+](=O)[O-])c1-c1ccc(F)cc1Cl [compound 173] | 100 | 98 | 98 | 100 | 0 | 93
CCc1nn(C)c(Nc2ccc(C)cc2[N+](=O)[O-])c1-c1ccc(F)cc1Cl [compound 174] | 100 | 92 | 99 | 95 | 0 | 39
CCc1nn(C)c(Nc2ccc(C)cc2[N+](=O)[O-])c1-c1ccc(F)cc1F [compound 175] | 100 | 79 | 88 | 86 | 0 | 0
Cc1nn(C)c(Nc2c(Cl)cc(F)cc2[N+](=O)[O-])c1-c1ccc(Cl)cc1F [compound 176] | 100 | 0 | 9 | 97 | 0 | 0
Cc1cccc([N+](=O)[O-])c1Nc1c(-c2ccc(F)cc2F)c(C)nn1C [compound 177] | 100 | 50 | 100 | 97 | 0 | 9
